The source of these data is US6610702B2, “Ammonium salts of inositol hexaphosphate, and uses thereof” (GMP Oxycell, Inc., priority 2000, dated 2003).

For series [1], the target named is Free Hemoglobin (Homo sapiens, UniProt P68871). Description: P50 of free hemoglobin in the presence of effector. It counts as biochemical. The settings on record: fHb.
The nature of series [2]: 1-octanol/aqueous phase partition coefficients of IHP salts measured by 31P-NMR. It counts as physicochemical. From the text:
Partition coefficients measurements. We synthesized a first series of IHP derivatives, ionically associated to different aliphatic and aromatic amines as well as amino-esters. Taking advantage of the 6 phosphate groups present in the IHP molecule, we measured, by ^31P-NMR, the partition coefficients of IHP salts between a 1-octanol phase and two different aqueous phases: water and human serum. In FIG. 11 are represented the structures of the different amines preassociated to IHP and the corresponding partition coefficients Kow and Kos. These coefficients are measured after equilibration, at a concentration of 30 mM, close to the typical concentration employed for the biological evaluations (the standard concentration used for O2-dissociation curve measurements is 22 mM).
Choice of the aqueous phases. […] To be even closer to physiological conditions, we pushed this investigation further by measuring 1-octanol/human serum partition coefficients Kos. […] Therefore, we only measured Kos's when Kow values were significant. To illustrate this observation we compared the partitions of 2 IHP derivatives, SV75 and SV131, in different aqueous systems: water, artificial serum (for its composition, see the Experimental section) without and with albumin, and human serum.
Human serum was purchased at the “Centre de Transfusion Sanguine de Strasbourg”. Artificial serum was based on blood composition : [Na^+]=140 mM, [Mg^2+]=1 mM, [K^+]=5 mM, [Ca^2+]=1 mM, [Cl^−]=106 mM, [PO4^3−]=1 mM, [SO4^2−]=0.5 mM, [CO3^2−]=30 mM, [Br^−]=0.5 mM, bovine serum albumin (fraction V, >98%) 30 g.l^−1, pH=7.41.
Partition coefficients. […] 1 ml of 1-octanol was then added and each sample was shaken at 36 rpm during 12 hours. The equilibrated biphasic solutions were centrifuged for 2 hours at 3000 rpm. 350 μl of the octanolic phase was first taken off with a syringe and put directly in the NMR tube. 350 μl of the aqueous phase was then taken off. ^31P-NMR spectra were performed on a Bruker AC-300 apparatus. An external standard (triphenylphosphine oxide, 60 mM in d6-DMSO) was placed inside the NMR tubes to allow both the locking process of the apparatus and an accurate integration of IHP peaks. Partition coefficients were determined as the ratio of IHP integrations, relative to the external standard, in the octanol and aqueous phases.

Series [3] concerns whole blood. In words: P50 of whole blood pre-incubated with effector (Hemox Analyzer). It counts as cell-based. As to the method: Whole blood was collected from one subject. The blood was stored in a Vacutainer with Solution A (ACD) and stored at 4-8° C.
Preparation of Effector Stock: Effector stock was prepared at 100-120 mM (Molal solution) using water or Bis-Tris Buffer. Effector characteristics prior to incubation were:
Incubation: Whole blood (75-300 μL) was incubated with 200 μL of effector at 37° C. for 5-10 min. (see Summary of Results below).
(§1) Washes: After incubation of whole blood with/without effector, blood cells were washed four times with Saline buffer or HBS (BSA) by centrifugal pelleting to remove exogenous effector and to evaluate hemolysis. After final centrifugation, pellet was not resuspended.
Blood Oxygen Dissociation Reading: Blood Oxygen Dissociation of samples were determined using a Hemox Analizer Model B (TCS Medical Products Company, New Hope, Pa.). The sample chamger contained:
10-20 μL Pelleted Blood Cells incubated with Effector
All readings were made at 36.7-37.2° C. and at pH 7.28-7.32. The P50s were calculated from the Dissociation Curves compared to same day control P50.

For series [4], the target named is stripped hemoglobin (Homo sapiens, UniProt P68871). As to conditions: pH 7.4, cited from earlier work.
Series [5] concerns red blood cells. Description: hemolysis of red blood cells on incubation of whole blood with effector. It counts as cell-based. As for the experimental part: as §1
Series [6] deals with whole blood. Description: P50 shift on whole blood, first library (Hb-O2 dissociation curve). The settings on record: 220 mOsM, control IHP sodium form, 37° C. It counts as cell-based. As to the method: In FIG. 14 the different IHP derivatives have been classified by amine types, the number of cations per IHP molecule as well as the reference number are indicated beside each amine drawings. The P50 shift values have to be compared to the control experiment (underlined), corresponding to a test performed in the same conditions but with IHP, sodium form. P50 values have been measured in Professor Nicolau's laboratory in Boston (bioassay conditions: 75 μl of whole blood was incubated 2 minutes with 300 μl of a 50 mM solution of IHP derivatives. The system was then washed and 20 μl were used for measurement of the Hb-O2 dissociation curve at 37° C.). See also FIGS. 15-17 for tables of P50 values at various osmolarities of whole blood, and free hemoglobin that has been pre-incubated with various ammonium salts of inositol hexaphosphate.

Setting [7] is: 0.25 umoles EFF, control P50 16 mmHg, 37° C.
Where [8] appears, read: 1-octanol/water, concentration of 30 mM.

Counter-ions that a name gives are not always drawn. Like-named read-outs stand apart in the source and are kept apart here.

Free Hemoglobin, sequence (P68871 2-147 limits assumed): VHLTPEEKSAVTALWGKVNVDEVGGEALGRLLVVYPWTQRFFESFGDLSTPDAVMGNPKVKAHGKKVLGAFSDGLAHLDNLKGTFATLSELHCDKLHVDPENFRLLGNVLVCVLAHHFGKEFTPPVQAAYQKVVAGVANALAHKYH
Free Hemoglobin, sequence (P69905 2-142 partner limits assumed): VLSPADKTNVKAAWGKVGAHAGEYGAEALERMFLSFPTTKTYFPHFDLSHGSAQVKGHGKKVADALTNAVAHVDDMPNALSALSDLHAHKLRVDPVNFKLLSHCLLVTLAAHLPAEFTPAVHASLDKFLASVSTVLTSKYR
stripped hemoglobin, sequence (P68871 2-147 limits assumed): as the sequence (P68871 2-147 limits assumed) above
stripped hemoglobin, sequence (P69905 2-142 partner limits assumed): as the sequence (P69905 2-142 partner limits assumed) above

Take “Inositol hexaphosphate, penta cyclohexyl-(1,3-bismethylammonium) salt [SV 94]”: in series [1] (setting [7]), the “P50 mmHg EFF (free hemoglobin)” value came out at 41.0 mmHg.
In the case of `NC1CCCC1.NC1CCCC1.NC1CCCC1.NC1CCCC1.NC1CCCC1.NC1CCCC1.NC1CCCC1.NC1CCCC1.NC1CCCC1.NC1CCCC1.NC1CCCC1.O=P(O)(O)OC1C(OP(=O)(O)O)C(OP(=O)(O)O)C(OP(=O)(O)O)C(OP(=O)(O)O)C1OP(=O)(O)O` (stereo not shown) [SV78, Inositol hexaphosphate, undeca-cyclopentylammonium salt], the Kow in series [2] (setting [8]) was < 10^−3.
On to `C1CCC(NCCN(CCNC2CCCCC2)CCNC2CCCCC2)CC1.C1CCC(NCCN(CCNC2CCCCC2)CCNC2CCCCC2)CC1.C1CCC(NCCN(CCNC2CCCCC2)CCNC2CCCCC2)CC1.O=P(O)(O)O[C@H]1[C@H](OP(=O)(O)O)[C@@H](OP(=O)(O)O)[C@H](OP(=O)(O)O)[C@@H](OP(=O)(O)O)[C@H]1OP(=O)(O)O` [SV102, Inositol hexaphosphate, tris tri-(N-cyclohexyl-2-amino-ethyl)-ammonium salt], for which, in series [1] (setting [7]), the “P50 mmHg EFF (free hemoglobin)” value came to 41.0 mmHg. The “P50 mmHg EFF:WB” value in series [3] (effector 82 mOsM, EFF:WB 1:0.375, pH 7.2-7.3, control 41.5) came out at 75.0 mmHg; in series [3] (effector 321 mOsM, EFF:WB 1:1.5, pH 7.2-7.3, control 40.5), 39.5 mmHg.
In the case of `NC1CCCCC1N.NC1CCCCC1N.NC1CCCCC1N.NC1CCCCC1N.NC1CCCCC1N.O=P(O)(O)O[C@H]1[C@H](OP(=O)(O)O)[C@@H](OP(=O)(O)O)[C@H](OP(=O)(O)O)[C@@H](OP(=O)(O)O)[C@H]1OP(=O)(O)O` [SV 92, Inositol hexaphosphate, penta (±)-(trans)-1,2-cyclohexyldiammonium salt], in series [1] (setting [7]), the “P50 mmHg EFF (free hemoglobin)” value is reported as 45.0 mmHg. Moreover, the “P50 mmHg EFF:WB” value is on record as 58.5 mmHg in series [3] (effector 84 mOsM, EFF:WB 1:0.375, pH 7.2-7.3, control 41.4) and 38.7 mmHg in series [3] (effector 336 mOsM, EFF:WB 1:1.5, pH 7.2-7.3, control 40.5).
As to `C1CCC(N2CCCCC2)CC1.C1CCC(N2CCCCC2)CC1.C1CCC(N2CCCCC2)CC1.C1CCC(N2CCCCC2)CC1.C1CCC(N2CCCCC2)CC1.C1CCC(N2CCCCC2)CC1.C1CCC(N2CCCCC2)CC1.C1CCC(N2CCCCC2)CC1.C1CCC(N2CCCCC2)CC1.O=P(O)(O)O[C@H]1[C@H](OP(=O)(O)O)[C@@H](OP(=O)(O)O)[C@H](OP(=O)(O)O)[C@@H](OP(=O)(O)O)[C@H]1OP(=O)(O)O` [SV 97, Inositol hexaphosphate, nona N-cyclohexyl-piperidinium salt], in series [1] (setting [7]), the “P50 mmHg EFF (free hemoglobin)” value is listed as 46.7 mmHg. The “P50 mmHg EFF:WB” value is 49.7 mmHg in series [3] (effector 111 mOsM, EFF:WB 1:0.375, pH 7.2-7.3, control 41.5) and 40.0 mmHg in series [3] (effector 343 mOsM, EFF:WB 1:1.5, pH 7.2-7.3, control 40.5).
For the compound `O=C(O)C(COP(=O)(O)O)OP(=O)(O)O` (stereo not shown) [2,3-Diphosphoglycerate], the “half-saturation pressure P(O2) (½) of stripped hemoglobin” value in series [4] (25 C., stripped hemoglobin alone 4.3) is 12.0 mm Hg; in series [4] (37 C., stripped hemoglobin alone 9.3) it was 23.7 mm Hg.
Turning to `C1CCCC(NCCCN2CCN(CCCNC3CCCCCCC3)CC2)CCC1.C1CCCC(NCCCN2CCN(CCCNC3CCCCCCC3)CC2)CCC1.C1CCCC(NCCCN2CCN(CCCNC3CCCCCCC3)CC2)CCC1.O=P(O)(O)O[C@H]1[C@H](OP(=O)(O)O)[C@@H](OP(=O)(O)O)[C@H](OP(=O)(O)O)[C@@H](OP(=O)(O)O)[C@H]1OP(=O)(O)O` [SV141, Inositol hexaphosphate, tri N,N′-di-(3-(N-cyclooctyl-amino)-propyl)-piperazinium salt], the “P50 mmHg EFF (free hemoglobin)” value in series [1] (ratio 1:1 (2.5 mM:2.5 mM), pH 7.1-7.2, control P50 10.5 mmHg) is recorded as 22.0 mmHg. The “lysis of whole blood incubated with effector” value in series [5] (WB, EFF:WB 1:0.375, no sufficient RBC pellet) is given as “Lyses”. For the same compound, in series [3] (effector 221 mOsM, EFF:WB 1:1.5, pH 7.1-7.2, control 25), the “P50 mmHg EFF:WB” value is on record as 25.0 mmHg.
With `CCC(C)C(N)C(=O)OC(C)(C)C.CCC(C)C(N)C(=O)OC(C)(C)C.CCC(C)C(N)C(=O)OC(C)(C)C.CCC(C)C(N)C(=O)OC(C)(C)C.CCC(C)C(N)C(=O)OC(C)(C)C.CCC(C)C(N)C(=O)OC(C)(C)C.CCC(C)C(N)C(=O)OC(C)(C)C.CCC(C)C(N)C(=O)OC(C)(C)C.O=P(O)(O)OC1C(OP(=O)(O)O)C(OP(=O)(O)O)C(OP(=O)(O)O)C(OP(=O)(O)O)C1OP(=O)(O)O` (stereo not shown) [SV57, Inositol hexaphosphate, octa isoleucine-tbuthyl-ester], the “hemolysis of red blood cells” value in series [5] (first library bioassay on whole blood) is given as “fast hemolysis”.
Consider “Inositol hexaphosphate, octa menthyl-1,8-diammonium salt [SV 89]”, for which, in series [1] (setting [7]), the “P50 mmHg EFF (free hemoglobin)” value came out at 41.7 mmHg.
With `C1CCCC(NCCN(CCNC2CCCCCC2)CCNC2CCCCCC2)CC1.C1CCCC(NCCN(CCNC2CCCCCC2)CCNC2CCCCCC2)CC1.C1CCCC(NCCN(CCNC2CCCCCC2)CCNC2CCCCCC2)CC1.O=P(O)(O)O[C@H]1[C@H](OP(=O)(O)O)[C@@H](OP(=O)(O)O)[C@H](OP(=O)(O)O)[C@@H](OP(=O)(O)O)[C@H]1OP(=O)(O)O` [SV137, Inositol hexaphosphate, tris tri-(N-cycloheptyl-2-amino-ethyl)-ammonium salt], the Kos in series [2] (1-octanol/human serum, concentration of 30 mM) was 0.64. In addition, the Kow in series [2] (setting [8]) is listed as 2.70. In series [3] (effector 268 mOsM, EFF:WB 1:0.375, pH 7.2-7.3, control 29.5), the “P50 mmHg EFF:WB” value is listed as 32.0 mmHg.
For `NC1CCCCC1.NC1CCCCC1.NC1CCCCC1.NC1CCCCC1.NC1CCCCC1.NC1CCCCC1.NC1CCCCC1.NC1CCCCC1.NC1CCCCC1.O=P([O-])([O-])OC1C(OP(=O)([O-])O)C(OP(=O)(O)O)C(OP(=O)(O)O)C(OP(=O)(O)O)C1OP(=O)(O)O.[Na+].[Na+].[Na+]` (stereo not shown) [ICP6, nona cyclohexylammonium tri sodium inositol hexaphosphate], the “P50 EFF:WB” value in series [3] (EFF 30 mM, EFF:WB 22 mM, 220 mOsM, pH 7.23, ratio 1:0.375, control WB 27.5, 37 C.) was found to be 39 mmHg.
For `NC1CCCCCC1` [SV75, Inositol hexaphosphate, nona-cycloheptylammonium salt], the “Koas (artificial serum with albumin)” value in series [2] (1-octanol/artificial serum with albumin, at 18 mM) is given as 0.041. For the same compound, the “Koa (artificial serum without albumin)” value in series [2] (1-octanol/artificial serum without albumin, at 18 mM) is 0.088. Also, in series [2] (1-octanol/human serum, at 18 mM), the “Kos (human serum)” value was found to be 0.031. Further, the “Kow (water)” value in series [2] (1-octanol/water, at 18 mM) is reported as 0.411.
For the compound `NC1CCCCC1.NC1CCCCC1.NC1CCCCC1.NC1CCCCC1.NC1CCCCC1.NC1CCCCC1.NC1CCCCC1.NC1CCCCC1.NC1CCCCC1.NC1CCCCC1.NC1CCCCC1.O=P(O)(O)OC1C(OP(=O)(O)O)C(OP(=O)(O)O)C(OP(=O)(O)O)C(OP(=O)(O)O)C1OP(=O)(O)O` (stereo not shown) [SV81, Inositol hexaphosphate, undeca-cyclohexylammonium salt], in series [6], the “shift of the P50 value (compared to the control experiment)” value stood at 50%.
Regarding `NC1CCCCCCC1` [cyclooctylammoniums], the “equivalents of cyclooctylammoniums required to reach a Kos value equal to 1” value in series [2] (constant IHP concentration 22 mM, human serum/octanol, IHP sodium salt in serum, ammonium hydrochloride in organic phase) is on record as 8 equivalents.
